According to patent US6482849B1, “Inhibitors of α4β1 mediated cell adhesion” (Tanabe Seiyaku Co., Ltd., priority 1997, dated 2002):
Where a name gives a salt, the structure may show the parent alone.

Experiments:
[1] = target: T1, α4β1 integrin (Jurkat cell adhesion to immobilized CS-1 derived peptide CLHPGEILDVPST) (Homo sapiens, UniProt P05556+P13612); experiment: Jurkat-CS-1 Assay; assay type: cell-based; conditions: Jurkat cells on CS-1 peptide coated plates
T1 construct: 100 μl of Jurkat cells (2.5×10^6 cells/ml) in DMEM plus BSA; endogenous in cells; host or cells: Jurkat T-cell line
T1 sequence (P13612 34-1032): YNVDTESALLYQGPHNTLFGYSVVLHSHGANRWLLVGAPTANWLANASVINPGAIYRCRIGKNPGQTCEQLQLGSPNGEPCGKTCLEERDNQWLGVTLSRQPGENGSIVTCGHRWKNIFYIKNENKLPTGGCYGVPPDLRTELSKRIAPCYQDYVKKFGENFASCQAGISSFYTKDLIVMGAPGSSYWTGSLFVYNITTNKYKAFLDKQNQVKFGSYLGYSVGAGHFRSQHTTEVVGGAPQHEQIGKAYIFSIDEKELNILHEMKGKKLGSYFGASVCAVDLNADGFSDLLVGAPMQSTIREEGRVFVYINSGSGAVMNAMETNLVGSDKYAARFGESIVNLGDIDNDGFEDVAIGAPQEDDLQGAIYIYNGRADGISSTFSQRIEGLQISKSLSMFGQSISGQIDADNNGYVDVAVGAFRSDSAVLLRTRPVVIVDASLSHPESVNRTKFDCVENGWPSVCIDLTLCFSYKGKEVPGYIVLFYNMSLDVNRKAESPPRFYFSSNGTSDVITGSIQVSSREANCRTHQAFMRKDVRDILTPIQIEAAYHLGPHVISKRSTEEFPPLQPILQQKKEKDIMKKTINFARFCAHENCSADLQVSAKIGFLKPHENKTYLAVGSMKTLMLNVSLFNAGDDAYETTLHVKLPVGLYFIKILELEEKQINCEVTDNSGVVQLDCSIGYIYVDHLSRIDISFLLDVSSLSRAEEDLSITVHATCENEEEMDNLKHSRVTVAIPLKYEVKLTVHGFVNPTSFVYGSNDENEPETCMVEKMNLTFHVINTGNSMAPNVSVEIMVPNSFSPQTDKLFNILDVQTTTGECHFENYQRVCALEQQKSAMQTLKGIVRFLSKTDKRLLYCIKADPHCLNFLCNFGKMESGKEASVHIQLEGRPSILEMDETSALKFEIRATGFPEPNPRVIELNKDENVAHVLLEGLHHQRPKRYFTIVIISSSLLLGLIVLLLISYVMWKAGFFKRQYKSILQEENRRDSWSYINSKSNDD
T1 sequence (P05556 21-798): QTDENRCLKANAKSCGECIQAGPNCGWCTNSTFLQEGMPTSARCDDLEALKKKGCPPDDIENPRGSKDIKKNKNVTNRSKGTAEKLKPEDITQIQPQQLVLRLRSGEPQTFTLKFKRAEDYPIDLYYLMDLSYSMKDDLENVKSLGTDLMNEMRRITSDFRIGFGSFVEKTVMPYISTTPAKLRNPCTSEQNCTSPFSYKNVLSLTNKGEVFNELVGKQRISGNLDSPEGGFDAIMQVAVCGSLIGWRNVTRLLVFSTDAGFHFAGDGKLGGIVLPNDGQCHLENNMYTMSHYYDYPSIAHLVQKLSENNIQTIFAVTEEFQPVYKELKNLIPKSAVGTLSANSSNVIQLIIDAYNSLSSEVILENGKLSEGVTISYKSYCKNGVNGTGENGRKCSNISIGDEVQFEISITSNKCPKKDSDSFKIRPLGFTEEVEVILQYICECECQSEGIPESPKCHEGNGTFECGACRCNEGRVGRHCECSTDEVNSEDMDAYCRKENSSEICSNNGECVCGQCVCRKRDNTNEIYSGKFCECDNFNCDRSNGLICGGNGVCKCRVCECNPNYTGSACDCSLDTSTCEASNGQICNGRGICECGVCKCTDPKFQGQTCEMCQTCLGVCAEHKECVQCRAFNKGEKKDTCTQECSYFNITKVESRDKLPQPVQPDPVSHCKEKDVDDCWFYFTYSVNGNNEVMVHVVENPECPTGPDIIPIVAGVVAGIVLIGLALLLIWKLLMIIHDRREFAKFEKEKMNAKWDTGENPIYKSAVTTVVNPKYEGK
Method: The CS-1 derived peptide, CLHPGEILDVPST, and the scrambled control peptide, CLHGPIELVSDPT, were synthesized on a Beckman 990 synthesizer using t-Boc methodology. The peptides were immobilized onto microtiter plates using the heterobifunctional crosslinker 3-(2-pyridyldithio)propionic acid N-hydroxysuccinimide ester (SPDP) as reported by Pierschbacher et al., Proc. Natl. Acad. USA, 80:1224-1227 (1983). Microtiter plates were coated with 20 μg/ml HSA for 2 hr. at room temperature, washed once with PBS and derivatized with 10 μg/ml SPDP for 1 hr. After washing, 100 μl of a 100 μg/ml cysteine containing peptide solution which had been recently dissolved was added to the wells and allowed to crosslink to the plates overnight at 4° C. Unbound peptide was removed from plates by washing with PBS. To block non-reacted sites, the plates are coated with 100 μl of a 2.5 mg/ml BSA solution in PBS for 1 hr. at 37° C. 100 μl of Jurkat cells (2.5×10^6 cells/ml) in DMEM plus BSA (2.5 mg/ml) was mixed with an appropriate concentration of the compound to be tested and the mixture was added to peptide coated dishes and incubated for 1 hr. at 37° C. Generally 100, 20, 5 and 1.25 μM concentrations of the compound were tested.
Following this incubation the plates were washed once with PBS and the attached cells were fixed with 3% paraformaldehyde in PBS and stained with 0.5% toluidine blue in 3.7% formaldehyde. The cells were stained overnight at room temperature and the optical density at 590 nm of toluidine blue stained cells was determined using a vertical pathway spectrophotometer to quantitate attachment (VMAX Kinetic Microplate Reader, Molecular Devices, Menlo Park, Calif.). This procedure is a modification of a previously published method (Cardarelli et al, J. Biol. Chem., 269:18668-18673 (1994) and Cardarelli et al, Proc. Natl. Acad. Sci. USA, 83:2647-2651 (1986)).

[2] = target: T2, α4β1 integrin (Jurkat T-cell adhesion to IL-1 stimulated endothelial cell monolayers) (Homo sapiens, UniProt P05556+P13612); experiment: Jurkat-Endothelial Cell Adhesion Assay (Jurkat EC); assay type: cell-based; conditions: Jurkat cells on IL-1 stimulated HUVEC monolayers
T2 construct: a T-cell line, Jurkat, known to express the α4β1 integrin; host or cells: Jurkat T-cell line
T2 sequence (P13612 34-1032): as the sequence (P13612 34-1032) above
T2 sequence (P05556 21-798): as the sequence (P05556 21-798) above
Method: The following assay established the activity of the present compounds in inhibiting β1-mediated cell adhesion in a representative in vitro system. This assay measures the adhesive interactions of a T-cell line, Jurkat, known to express the α4β1 integrin, to endothelial monolayers in the presence of test compounds. The test compounds were added in increasing concentrations to T-cells and then the T-cell compound mixture was added to IL-1 stimulated endothelial cell monolayers. The plates were incubated, washed and the percentage of attached cells was quantitated. […] Human umbilical vein endothelial cells were purchased from Clonetics (San Diego, Calif.) at passage number 2. The cells were grown on 0.5% porcine skin gelatin pre-coated flasks (Sigma, St. Louis Mo.) in EGM-UV media (Clonetics, San Diego, Calif.) supplemented with 10% fetal bovine serum. Cells are refed every 2-3 days reaching confluence by day 4 to 6. […] The endothelial cells are not used following passage 6. Am The T-cell line Jurkat was obtained from American Type Tissue Culture Collection (Rockville, Md.) and the cells were cultured in RPMI containing 10% fetal calf serum. The cells were washed twice in Hank's Balanced Salt Solution (HBSS) and resuspended in Dulbecco's […] Eagle's Media (DMEM) containing 2.5 mg/ml Human Serum Albumin (HSA). Jurkat cells (1×10^6 cells/ml) were stained with 10 ng/ml BCECF-AM z z (Molecular Probes, Eugene, Ore.)) in HBSS without phenol red. The cells were loaded with BCECF for 60 minutes in the dark at 37° C., washed 2 times, and resusupended in DMEM-HSA solution.
Confluent endothelial monolayers, grown in 96-well tissue culture plates, were stimulated for 4 hr. at 37° C. with 0.1 ng/ml (˜50 U/ml) recombinant IL-1 (Amgen, Thousand Oaks, Calif.). Following this incubation, the monolayers were washed twice with HBSS and 0.1 ml of DMEM-HSA solution was added. Jurkat cells (5×10^5 cells) were combined with the appropriate concentration of the test compound and 0.1 ml of the Jurkat cell-compound mixture was added to the endothelial cell monolayers. Generally, 100, 20, 5 and 1.25 μM compound concentrations were tested. […] The plates were placed on ice for 5 minutes to allow for Jurkat cell settling and the plates were incubated at 37° C. for 20 minutes. Following this incubation, the monolayers were washed twice with PBS containing 1 mM calcium chloride and 1 mM magnesium chloride and the plates were read using a Millipore Cytofluor 2300 (Marlboro, Mass.). Fluorescence in each well was measured as Arbitrary Fluorescence Units and percent adhesion in the absence of compound was adjusted to 100% and the % adhesion in the presence of compound was calculated. Monolayers were also fixed in 3% paraformaldehyde and evaluated microscopically to verify the adhesion. This procedure is a modification of a previously published method (Cardarelli et al., J. Biol. Chem. 269:18668-18673 (1994)).

`CC1(C)[C@@H](C(=O)N[C@@H](Cc2ccc(NC(=O)c3c(Cl)cccc3Cl)cc2)C(=O)O)CC[C@@]1(C)C(=O)N[C@H](CCCCN)C(=O)O` (relative stereo) [Example 179] was tested, and the IC50 [1] was at most 80 nM and the IC50 [2] was 5000 to 10000 nM.
With `C[C@H](NC(=O)[C@]1(C)CC[C@H](C(=O)N[C@@H](Cc2ccc(OCc3c(Cl)cccc3Cl)cc2)C(=O)O)C1(C)C)C(=O)O` (relative stereo) [Example 188, [1S-[1α, 3α(R)]]-N-[[3-[[(1-Carboxyethyl)amino]carbonyl]-2,2,3-trimethylcyclopentyl]carbonyl]-O-[(2,6-dichlorophenyl)methyl]-L-tyrosine] the IC50 [1] was 80 to 500 nM and the IC50 [2] was 800 to 5000 nM.
Compound `CC1(C)[C@@H](C(=O)N[C@@H](Cc2ccc(OCc3c(Cl)cccc3Cl)c(Cl)n2)C(=O)O)CC[C@@]1(C)C(=O)O` (relative stereo) [Example 194, [1S-[1α(R*),3α]]-α-[[(3-Carboxy-2,2,3-trimethylcyclopentyl)carbonyl]amino]-6-chloro-5-[(2,6-dichlorophenyl)methoxy]-2-pyridinepropanoic acid] has an IC50 [1] of 80 to 500 nM and an IC50 [2] of 800 to 5000 nM.
With `C[C@H](NC(=O)[C@]1(C)CC[C@H](C(=O)N[C@@H](Cc2ccc(NC(=O)c3c(Cl)cccc3Cl)cc2)C(=O)O)C1(C)C)C(=O)O` (relative stereo) [Example 211, [1S-[1α,3α(S*)]]-N-[[3-[[(1-Carboxyethyl)amino]carbonyl]-2,2,3-trimethylcyclopentyl]carbonyl]-4-[(2,6-dichlorobenzoyl)amino]-L-phenylalanine] the IC50 [1] was at most 80 nM and the IC50 [2] was at most 800 nM.
With `CC1(C)[C@@H](C(=O)N[C@@H](Cc2ccc(NC(=O)c3c(Cl)cccc3Cl)cc2)C(=O)O)CC[C@@]1(C)C(=O)N1CCC[C@@H]1C(N)=O` (relative stereo) [Example 212, [1S-[1α,3α(S*)]]-N-[3-[[2-(Aminocarbonyl)-1-pyrrolidinyl]carbonyl]-2,2,3-trimethylcyclopentyl]-carbonyl]-4-[(2,6-dichlorobenzoyl)amino]-L-phenylalanine monolithium salt] the IC50 [1] was 80 to 500 nM and the IC50 [2] was 5000 to 10000 nM.
`CC1(C)[C@@H](C(=O)N[C@@H](Cc2ccc(NC(=O)c3c(Cl)cccc3Cl)cc2)C(=O)O)CC[C@@]1(C)C(=O)N1CCC[C@H]1C(N)=O` (relative stereo) [Example 213, [1S-[1α,3α(R*)]]-N-[3-[[2-(Aminocarbonyl)-1-pyrrolidinyl]carbonyl]-2,2,3-trimethylcyclopentyl]-carbonyl]-4-[(2,6-dichlorobenzoyl)amino]-L-phenylalanine monosodium salt] was tested, and the IC50 [1] was 80 to 500 nM and the IC50 [2] was 800 to 5000 nM.
`CNC(=O)[C@@H]1CCCN1C(=O)[C@]1(C)CC[C@H](C(=O)N[C@@H](Cc2ccc(NC(=O)c3c(Cl)cccc3Cl)cc2)C(=O)O)C1(C)C` (relative stereo) [Example 215, [1S-[1α,3α(R*)]]-N-[3-[[2-[(Methylamino)carbonyl]-1-pyrrolidinyl]carbonyl]-2,2,3-trimethyl-cyclopentyl]carbonyl]-4-[(2,6-dichlorobenzoyl)amino]-L-phenylalanine monosodium salt] was tested, and the IC50 [1] was 80 to 500 nM and the IC50 [2] was at most 800 nM.
`CC1(C)[C@@H](C(=O)O)CC[C@@]1(C)NC(=O)N[C@]1(C)CC[C@H](C(=O)N[C@@H](Cc2ccc(NC(=O)c3c(Cl)cccc3Cl)cc2)C(=O)O)C1(C)C` (relative stereo) [Example 236, [1S-[1α,3α(1S*,3R*)-N-]]-N-[[3[[[(3-Carboxy-1,2,2-trimethylcyclopentyl)amino]carbonyl]-amino]-2,2,3-trimethylcyclopentyl]carbonyl]-4-[(2,6-dichlorobenzoyl)-amino]-L-phenylalanine] gave an IC50 [1] of 80 to 500 nM and an IC50 [2] of at most 800 nM.
With `CC1(C)[C@@H](C(=O)N[C@H](Cc2ccc(OCc3c(Cl)cccc3Cl)cn2)C(=O)O)CC[C@@]1(C)C(=O)O` (relative stereo) [Example 254, [1S-[1α(R*),3α]]-α-[[(3-Carboxy-2,2,3-trimethylcyclopentyl)carbonyl]amino]-3-[(2,6-dichlorophenyl)methoxy]-6-pyridinepropanoic acid] the IC50 [1] was 80 to 500 nM and the IC50 [2] was 800 to 5000 nM.
For `CC1(C)[C@@H](C(=O)N[C@@H](Cc2ccc(OCc3ccc4ccccc4c3)cc2)C(=O)O)CC[C@@]1(C)C(=O)O` [Example 10], the IC50 [1] was 80 to 500 nM and the IC50 [2] was 800 to 5000 nM.
Work on `CC1(C)[C@@H](C(=O)N[C@@H](Cc2cn(Cc3ccc(Cl)cc3Cl)cn2)C(=O)O)CC[C@@]1(C)C(=O)O` [Example 24] yielded an IC50 [1] of 80 to 500 nM and an IC50 [2] of 800 to 5000 nM.
`CC1(C)[C@@H](C(=O)N[C@@H](Cc2cn(Cc3c(Cl)cccc3Cl)cn2)C(=O)O)CC[C@@]1(C)C(=O)O` [Example 26] was tested, and the IC50 [1] was 500 to 1000 nM and the IC50 [2] was 800 to 5000 nM.
`CC1(C)[C@@H](C(=O)N[C@@H](Cc2cn(Cc3ccc(Cl)cc3)cn2)C(=O)O)CC[C@@]1(C)C(=O)O` [Example 28] was tested, and the IC50 [1] was 80 to 500 nM and the IC50 [2] was 800 to 5000 nM.
In the case of `COc1ccc(Cn2cnc(C[C@H](NC(=O)[C@H]3CC[C@@](C)(C(=O)O)C3(C)C)C(=O)O)c2)cc1` [Example 31], the IC50 [2] is reported as 5000 to 10000 nM.
With `CC1(C)[C@@H](C(=O)N[C@@H](Cc2cn(Cc3ccccc3C(F)(F)F)cn2)C(=O)O)CC[C@@]1(C)C(=O)O` [Example 36] the IC50 [1] was 500 to 1000 nM and the IC50 [2] was 5000 to 10000 nM.
For `CC1(C)[C@@H](C(=O)N[C@@H](Cc2cn(Cc3ccc4ccccc4c3)cn2)C(=O)O)CC[C@@]1(C)C(=O)O` [Example 38], the IC50 [1] was 80 to 500 nM and the IC50 [2] was 800 to 5000 nM.
`COC(=O)[C@H](Cc1ccc(NC(=O)c2c(Cl)cccc2Cl)cc1)NC(=O)[C@H]1CC[C@@](C)(C(=O)O)C1(C)C` [Example 53, (1S-cis)-N-[(3-Carboxy-2,2,3-trimethylcyclopentyl)carbonyl]-4-[(2,6-dichlorobenzoyl)amino]-L-phenylalanine methyl ester] showed an IC50 [1] of 500 to 1000 nM and an IC50 [2] of 800 to 5000 nM.
`CC1(C)[C@@H](C(=O)N[C@@H](Cc2ccc(OCc3c(Cl)cccc3Cl)c(O)c2)C(=O)O)CC[C@@]1(C)C(=O)O` [Example 65] was tested, and the IC50 [1] was 80 to 500 nM and the IC50 [2] was at most 800 nM.
In the case of `COC(=O)[C@H](Cc1ccc(NC(=O)c2c(Cl)cc(Cl)cc2Cl)cc1)NC(=O)[C@H]1CC[C@@](C)(C(=O)O)C1(C)C` [Example 92], the IC50 [1] is reported as at most 80 nM and the IC50 [2] is reported as at most 800 nM.
For `COC(=O)[C@H](Cc1ccc(NC(=O)c2ccccc2C)cc1)NC(=O)[C@H]1CC[C@@](C)(C(=O)O)C1(C)C` [Example 137], the IC50 [1] was 80 to 500 nM.
With `CC1(C)[C@H](C(=O)N[C@@H](Cc2ccc(OCc3c(Cl)cccc3Cl)cc2)C(=O)O)CC[C@]1(C)C(=O)O` [Example 189, (1R-cis)-N-[(3-Carboxy-2,2,3-trimethylcyclopentyl)carbonyl]-O-[(2,6-dichlorophenyl)methyl]-L-tyrosine] the IC50 [2] was 800 to 5000 nM.
